PMC8795149, “Characterization of a novel non-steroidal glucocorticoid receptor agonist optimized for topical treatment” (Scientific Reports, 2022)
Values belong to the compound of their own block, whether it stands above or below them.

How the values were obtained:
[1] = test system: skin atrophy; set-up: method as in PMID 23639214; conditions: healthy subjects; cited from earlier work
[2] = test system: atopic dermatitis; set-up: method as in PMID 25614148; conditions: atopic dermatitis patients; cited from earlier work
[3] = biological target: T1, mineralocorticoid receptor (MR) (Homo sapiens, UniProt P08235); test: MR agonist assay, MR-luciferase reporter cells; format: cell-based; conditions: 24 h incubation; 'in contrast' = unlike LEO 134310, which gave no significant activation
T1 sequence (P08235 1-984): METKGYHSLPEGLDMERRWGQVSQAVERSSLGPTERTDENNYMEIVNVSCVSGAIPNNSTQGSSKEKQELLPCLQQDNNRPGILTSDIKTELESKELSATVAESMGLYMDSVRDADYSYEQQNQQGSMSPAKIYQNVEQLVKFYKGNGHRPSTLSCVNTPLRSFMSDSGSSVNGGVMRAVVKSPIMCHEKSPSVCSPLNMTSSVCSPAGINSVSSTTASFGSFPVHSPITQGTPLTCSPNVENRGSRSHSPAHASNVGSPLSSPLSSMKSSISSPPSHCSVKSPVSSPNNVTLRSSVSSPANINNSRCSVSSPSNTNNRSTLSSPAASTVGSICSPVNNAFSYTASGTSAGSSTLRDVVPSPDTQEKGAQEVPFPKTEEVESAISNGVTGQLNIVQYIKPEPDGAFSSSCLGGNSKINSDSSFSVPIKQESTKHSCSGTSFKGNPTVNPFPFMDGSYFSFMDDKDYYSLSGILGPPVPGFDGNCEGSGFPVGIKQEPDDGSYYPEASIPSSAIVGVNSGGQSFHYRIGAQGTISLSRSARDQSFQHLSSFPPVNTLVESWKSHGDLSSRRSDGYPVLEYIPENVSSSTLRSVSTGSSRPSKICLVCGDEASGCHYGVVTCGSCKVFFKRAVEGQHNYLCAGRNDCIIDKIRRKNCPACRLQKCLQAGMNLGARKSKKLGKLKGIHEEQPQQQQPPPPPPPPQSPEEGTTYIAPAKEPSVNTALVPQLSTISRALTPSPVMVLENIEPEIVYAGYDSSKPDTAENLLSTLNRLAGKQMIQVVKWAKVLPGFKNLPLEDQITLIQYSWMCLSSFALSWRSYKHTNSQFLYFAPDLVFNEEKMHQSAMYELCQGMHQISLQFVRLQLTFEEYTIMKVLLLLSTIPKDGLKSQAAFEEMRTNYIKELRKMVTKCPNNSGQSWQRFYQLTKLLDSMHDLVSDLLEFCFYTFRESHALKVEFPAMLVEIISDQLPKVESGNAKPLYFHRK
Protocol: Assays were performed at Indigo Biosciences according to standard protocols. In brief, MR-luciferase reporter cells were incubated with medium containing charcoal-stripped fetal bovine serum and incubated with test and reference compounds for 24 h before measuring luminescence. Data were fitted by the means of four parameter logistic regression.

[4] = test system: HPA axis; set-up: method as in PMID 3553247; conditions: topical; cited from earlier work

SMILES: C[C@@H]1C[C@H]2[C@@H]3C[C@H](F)C4=CC(=O)C=C[C@]4(C)[C@@]3(F)[C@@H](O)C[C@]2(C)[C@@]1(OC(=O)C1C(C)(C)C1(C)C)C(=O)OCC#N [GW870086]
- Induction of skin atrophy [1]: not to induce skin atrophy
- Clinical efficacy [2]: did not achieve significant clinical efficacy

- Activation of MR (luciferase activity) [3]: positive control
SMILES: C[C@]12CCC(=O)C=C1CC[C@@H]1[C@@H]2[C@@H](O)C[C@]2(C=O)[C@@H](C(=O)CO)CC[C@@H]12 [aldosterone]

SMILES: CCC(=O)OCC(=O)[C@@]1(OC(=O)CC)[C@@H](C)C[C@H]2[C@@H]3CCC4=CC(=O)C=C[C@]4(C)[C@@]3(F)[C@@H](O)C[C@@]21C [betamethasone dipropionate]
- Effect on morning plasma cortisol [4]: reduce morning plasma cortisol significantly
